Laboratory results as given in PubChem BioAssay (NCI).
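Following 48 hours of exposure in 96-well plates, responses at five concentrations were used to interpolate endpoints linearly. TGI marks complete inhibition of growth.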

Columns and labels:
Test in all cases: growth of human tumour cells (NCI), 48 h
DU-145 prostate = tested on: DU-145 prostate
U251 CNS = tested on: U251 CNS
A498 renal = tested on: A498 renal
NCI-H522 lung = tested on: NCI-H522 lung
SNB-19 CNS = tested on: SNB-19 CNS
OVCAR-5 ovarian = tested on: OVCAR-5 ovarian
OVCAR-3 ovarian = tested on: OVCAR-3 ovarian
MCF7 breast = tested on: MCF7 breast
786-0 renal = tested on: 786-0 renal
K-562 leukemia = tested on: K-562 leukemia

Row | SMILES | TGI (DU-145 prostate) [µM] | TGI (U251 CNS) [µM] | TGI (A498 renal) [µM] | TGI (NCI-H522 lung) [µM] | TGI (SNB-19 CNS) [µM] | TGI (OVCAR-5 ovarian) [µM] | TGI (OVCAR-3 ovarian) [µM] | TGI (MCF7 breast) [µM] | TGI (786-0 renal) [µM] | TGI (K-562 leukemia) [µM]
1 | O=C1c2cccc(NCCNCCO)c2C(=O)c2cccc(NCCNCCO)c21 | 5.91 | 10.9 | 7.44 | 1.66 | 5.53 | 5.67 | 4.74 | 10.3 | 3.95 | 15
2 | COc1cc(CC(C)N)ccc1O (stereo not given) | > 100 | > 100 | > 100 | > 100 | > 100 | > 100 | > 100 | > 100 | > 100 | > 100
3 | COC(=O)c1cc2c(cc1CC(Cc1ccc3c(c1)CCC3)C(=O)OC)CCC2 (stereo not given) | > 100 | > 100 | > 100 | > 100 | > 100 | > 100 | > 100 | 92.7 | > 100 | > 100
4 | COc1ccc(/C=N/N2C(=O)c3c(N)c(C#N)c(-c4ccccc4)c(-c4ccccc4)c3C2=O)cc1 | > 100 | > 100 | > 100 | > 100 | > 100 | > 100 | > 100 | > 100 | > 100 | > 100
5 | O=C(O)c1ccc2c(c1)CC1(C2)Cc2cc3c(cc2C1=O)CCC3 (stereo not given) | > 100 | > 100 | > 100 | > 100 | > 100 | > 100 | > 100 | > 100 | > 100 | > 100
6 | CC12CC1C(c1cccc([N+](=O)[O-])c1)(c1cccc([N+](=O)[O-])c1)N=N2 (stereo not given) | > 100 | 51 | > 100 | 23.2 | > 100 | > 100 | > 100 | > 100 | 52.7 | > 100
7 | CCc1nc2cc3cccnc3c(Cl)c2[nH]c1=O | > 100 | > 100 | > 100 | > 100 | > 100 | > 100 | > 100 | > 100 | > 100 | > 100
8 | Cc1ccc(S(=O)(=O)NC(=O)NNc2ccc(F)cc2)cc1 | > 100 | > 100 | > 100 | > 100 | > 100 | > 100 | > 100 | > 100 | > 100 | > 58.2
9 | COc1ccc(N=Nc2c3c(c(O)c4ccccc24)CCC(C)(C)O3)cc1 | 71.8 | 37.9 | 32 | 33.5 | 50.4 | 43.3 | 33.2 | 29.5 | 73.8 | > 100
10 | COc1ccc(N=C2C(=S)N(c3ccc(OC)cc3)/C(=N/S(=O)(=O)c3ccccc3)N2c2ccccc2)cc1 | > 48.8 | 28.8 | > 100 | 4.24 | > 61 | 32 | 18.1 | 35.8 | 19.7 | > 100
11 | O=C(O)c1c2c(cc3c1CC1(Cc4ccccc4C1=O)C3)CCC2 (stereo not given) | > 100 | > 100 | 96 | 64.5 | > 100 | > 100 | > 100 | > 100 | > 100 | 33.6
12 | COC(=O)c1cc(C)ccc1CC(Cc1ccc(C)cc1)C(=O)OC (stereo not given) | > 100 | > 100 | > 100 | > 100 | > 100 | > 85.4 | > 100 | > 31.6 | > 100 | > 38.7
13 | COc1ccc2c(c1)CCN=C2c1ccccc1CCCCl | > 100 | > 100 | > 100 | 52.5 | 40.1 | > 100 | > 100 | > 100 | > 100 | > 100
14 | CC(C)(C)c1ccc(OCC(=O)O)c(Cl)c1 | > 100 | > 100 | > 100 | > 100 | > 100 | > 100 | > 100 | > 100 | > 100 | > 100
15 | c1ccc(C2=Nn3c(CCCCCCCCc4nnc5n4N=C(c4ccccc4)CS5)nnc3SC2)cc1 | > 100 | 36.8 | > 96.1 | > 100 | 43.3 | > 100 | > 100 | > 100 | 33.2 | > 79.7
16 | N#Cc1c(C#N)c(-c2ccccc2)n(-c2ccccc2)c1N | > 100 | > 100 | > 100 | > 100 | > 100 | > 100 | > 100 | > 100 | > 100 | > 100
